5 compounds from ChEMBL document CHEMBL1201862, “PubChem BioAssay data set” (2004) can be followed below.

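Cultured in 96-well plates, cells were exposed to test compound for 48 hours across five concentrations. Abbreviation: GI50, concentration required for 50% inhibition of growth.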 Active and inactive are the calls of the source. Rule as the data show it: active = GI50 up to about 1.1 µM and inactive = higher. Where only a bound is given, the exact number is not on record here.

Test systems include HCT-116; HOP-62; RXF 393; RPMI-8226; HOP-92; Malme-3M; SW-620; COLO 205; SNB-19; HL-60; SK-MEL-5; NCI-H522; K562; UACC-62; HCT-15; IGROV-1; U-251; SF-268; SK-MEL-2; SK-OV-3.
What all share (assay): inhibition of tumour cell growth, NCI panel, 48 h

For the compound `CC(C(=O)O)c1cnn(-c2ccccc2)c1-n1cccc1` (stereo not given), the GI50 with HCT-116, in the experiment on HOP-62, with RXF 393, with RPMI-8226, in the experiment on HOP-92 and in the experiment on Malme-3M was > 100 µM (inactive) throughout. Moreover, the GI50 was > 63 µM (inactive) in the experiment on SW-620; > 100 µM (inactive) with COLO 205; > 100 µM (inactive) in the experiment on SNB-19; > 100 µM (inactive) with HL-60; > 100 µM (inactive) with SK-MEL-5; > 100 µM (inactive) in the experiment with NCI-H522. Also, the GI50 was > 100 µM (inactive) in the experiment on K562; > 100 µM (inactive) in the experiment on UACC-62; > 100 µM in the experiment on HCT-15; > 100 µM (inactive) with IGROV-1; > 100 µM (inactive) in the experiment on U-251; > 100 µM (inactive) in the experiment with SF-268. Also, the GI50 with SK-MEL-2 and with SK-OV-3 was > 100 µM (inactive) in each case.
Consider `CC1=NN(C(=O)c2ccc(C)cc2)C(=O)C1/N=N/c1ccccc1C(=O)O` (stereo not given), for which the GI50 in the experiment on HCT-116 was > 100 µM (inactive); in the experiment on HOP-62 it was > 100 µM (inactive); with RXF 393, > 100 µM (inactive); in the experiment on RPMI-8226, 95.7 µM (inactive); in the experiment with HOP-92, > 79.8 µM (inactive); with Malme-3M, > 100 µM (inactive). In addition, the GI50 with SW-620 was > 100 µM (inactive); in the experiment on COLO 205 it was > 100 µM (inactive); in the experiment with SNB-19 it was > 100 µM (inactive); in the experiment on HL-60, > 62.7 µM (inactive); with SK-MEL-5, > 100 µM (inactive); in the experiment on NCI-H522, 29.6 µM (inactive). The GI50 in the experiment with K562 is 66.4 µM (inactive); in the experiment with UACC-62, > 100 µM (inactive); in the experiment with HCT-15 it was 52.6 µM; in the experiment on IGROV-1, > 100 µM (inactive); in the experiment on U-251, 85.7 µM (inactive); in the experiment on SF-268, > 100 µM (inactive). The GI50 in the experiment on SK-MEL-2 and with SK-OV-3 was > 100 µM (inactive) in each case.
`OCC(O)COc1ccc(Br)cc1` (stereo not given): the GI50 in the experiment on HCT-116, in the experiment with HOP-62, with RXF 393, with RPMI-8226, with HOP-92 and in the experiment on Malme-3M was > 100 µM (inactive) throughout. The GI50 with SW-620, in the experiment on COLO 205, in the experiment on SNB-19, with HL-60, in the experiment with SK-MEL-5 and in the experiment with NCI-H522 was > 100 µM (inactive) throughout. Further, the GI50 in the experiment on K562 is > 100 µM (inactive); in the experiment on UACC-62, > 100 µM (inactive); in the experiment with HCT-15, > 100 µM; in the experiment with IGROV-1, > 100 µM (inactive); in the experiment with U-251, > 100 µM (inactive); in the experiment on SF-268, > 100 µM (inactive). For the same compound, the GI50 in the experiment with SK-MEL-2 and in the experiment with SK-OV-3 was > 100 µM (inactive) in each case.
For the compound `CSc1cc(=O)n2c3ccccc3c3ccnc1c32`, the GI50 with HCT-116 is > 100 µM (inactive); in the experiment on HOP-62 it was 35.5 µM (inactive); in the experiment with RXF 393, > 49.2 µM (inactive); in the experiment with RPMI-8226, > 90.8 µM (inactive); in the experiment with HOP-92, 65.3 µM (inactive); in the experiment on Malme-3M, > 86.7 µM (inactive). Further, the GI50 in the experiment with SW-620 is > 100 µM (inactive); in the experiment on COLO 205, > 100 µM (inactive); with SNB-19 it was > 64.3 µM (inactive); in the experiment with HL-60, > 100 µM (inactive); in the experiment with SK-MEL-5, 43.4 µM (inactive); with NCI-H522, > 81.8 µM (inactive). For the same compound, the GI50 was > 100 µM (inactive) with K562; 41.4 µM (inactive) in the experiment on UACC-62; 39.7 µM in the experiment with HCT-15; 25.7 µM (inactive) with IGROV-1; > 55.6 µM (inactive) with U-251; > 49.9 µM (inactive) in the experiment with SF-268. Further, the GI50 was > 100 µM (inactive) in the experiment with SK-MEL-2 and 25.6 µM (inactive) in the experiment on SK-OV-3.
In the case of `O=C1C(CO)=C[C@H](O)[C@H]2O[C@@H]12`, the GI50 is 104 µM (inactive) with HCT-116; 497 µM (inactive) in the experiment on HOP-62; 153 µM (inactive) in the experiment with RXF 393; > 96.8 µM (inactive) in the experiment on RPMI-8226; 283 µM (inactive) in the experiment with HOP-92; 137 µM (inactive) with Malme-3M. The GI50 with SW-620 is 126 µM (inactive); in the experiment with COLO 205, 111 µM (inactive); in the experiment on SNB-19, 419 µM (inactive); with HL-60, 78.3 µM (inactive); in the experiment with SK-MEL-5, 202 µM (inactive); in the experiment with NCI-H522 it was 88.7 µM (inactive). The GI50 in the experiment with K562 was 163 µM (inactive); in the experiment on UACC-62 it was 113 µM (inactive); in the experiment on HCT-15, 124 µM; with IGROV-1, 182 µM (inactive); in the experiment with U-251, 171 µM (inactive); in the experiment on SF-268 it was 125 µM (inactive). Also, the GI50 in the experiment on SK-MEL-2 is 130 µM (inactive); with SK-OV-3, 330 µM (inactive).
